# “Also recorded” adds a separate entry of the source.
# Columns and labels:
# DSS colitis mice = assay: DSS colitis in mice, transanal treatment: body weight, fecal blood, histology, apoptosis; assay type: in vivo, C57BL/6 mice; details: for weight loss after 7 days (body weight change, FIG. 10B): 2.5% DSS, DCL and Losartan 10× (2,500 μg per dose), Candesartan 1× (250 μg per dose), mean±SD, placebo −15.81±6.59; for weight loss after 7 days (body weight change, FIG. 10B) / period before developing heme positive stools: transanal daily; for weight loss after 1 week (percentage change from baseline body weight) / period before developing heme positive stools: DSS; for weight loss after 1 week (percentage change from baseline body weight): transanal daily 7 days, placebo 15.8±6.5, P<0.001 versus placebo; for period before developing heme positive stools: placebo 5.64±1.22 days
# Description: Animals. Specific pathogen-free male, 8-week old C57BL/6 mice (Taconic Farms Inc, Germantown, N.Y.) were maintained in a 12-h night rhythm at 23° C. and a relative humidity of 40-60%. Animals were fed standard rodent chow (LabDiet 5001Rodent Diet, PMI Nutrition International, LLC, Brentwood, Mo.) ad libitum. All experiments were approved by the University Committee on Use and Care of Animals at the University of Michigan. Experimental colitis design. Dextran sodium sulfate (DSS) was administered through drinking water for 7 days. Mice were randomly divided into 5 groups. In the DSS+placebo group, mice were given […] (total volume 0.25 ml) each day as a control. […] A[…]-A were given at 10-fold higher doses (losartan and […]: 10 mg/kg/day, candesartan: 1 mg/kg/day) than typically given systemically, and daily dosing was continued for 7 days. The study drugs were administered using a blunt needle via the […] route. Testing conducted during development of embodiments of the invention characterized that this amount of drug evenly coated the entire colon. A separate group of mice contained naive mice as an additional control group which received plain drinking water ad libitum, and received only water (0.25 ml, […]) without AT 1 aR-A. Harvesting. Mice were euthanized 7 days after DSS by carbon dioxide asphyxiation. […] Formalin preserved sections of distal colon were preserved in paraffin, sectioned transversely (5 μm) and stained with hematoxylin and eosin (H&E). The remaining colon was immediately processed for mucosal cell isolation. Assessment of colitis. The body weight of each mouse, stool characteristics, and intestinal bleeding were recorded. All animals were evaluated daily. Occult bleeding was tested using a hemoccult-card test (Beckman Coulter Inc, Fullerton, Calif.). Histologic grading of colitis was performed in a masked fashion (investigator blinded to the study group) according to previously described methods. (See, e.g., Spencer et al., et al. Dig Dis Sci 2007; 52:1060-70). Crypt shortening and distortion, together with inflammatory infiltrative thickening of the lamina propria, were assigned a score 0 (normal) through 4 (complete loss of crypt, ulceration, and severe thickening of lamina propria). The individual colitis score (0-4) from four quadrants of a left-sided colonic section were summed, such that the maximum score for a given section was 16, and the minimum score was 0. The mean of at least 2 sections were assessed in this manner for each mouse. Epithelial cell apoptosis assays. A terminal deoxynucleotidyl transferase biotin-dUTP nick end labeling (TUNEL) staining method was used to detect apoptosis, according to manufacturer's instructions (APOPTAG PLUS Peroxidase InSitu Apoptosis Detection Kit, Chemicon International Inc, Temecula, Calif.), with slight modification. Slides were incubated with only one-third of the recommended concentration of TdT enzyme, in order to avoid over-staining. Assessment of apoptosis consisted of separate counting of all TUNEL positive EC in all well oriented crypts and villi separately, and dividing the total number of counted apoptotic cells per number of analyzed crypts and villi, respectively. Apoptotic Index in the region of villi is expressed as the number of TUNEL positive cells per one villus. The addition of both crypt and villus apoptotic indices is expressed as the apoptotic index per crypt-villus complex (at 20× magnification).
# [1] = Blood pressure and heart rate by tail-cuff in DSS mice after transanal treatment; assay type: in vivo, C57BL/6 mice; details: day 6 of DSS; for systolic blood pressure change (Delta BP, post − pre treatment): 1 hour before and 2 hr after treatment; for heart rate change: compared with naïve group
# From the text: Measurements of Blood Pressure and Heart Rate. […] The system was designed to perform all functions automatically, including a programmable routine of cuff inflation and deflation, analysis and assignment of pulse rate and blood pressure, and recording of data electronically. To avoid variations in blood pressures, results were expressed using % Delta Blood Pressure (percent change in systolic pressures prior to and after treatment). Heart rate was also expressed as the change in rate before and after final dosing of […] drug/placebo.
# [2] = mouse, in vivo
# From the text: The scores were compared to the Naïve cohort.
# Colonic mucosal and mesenteric blood flow measurements.
# [3] = tested on: mucosal RNA of regulatory factors associated with inflammatory bowel disease; assay: Mucosal RNA of regulatory factors by RT-PCR, DSS mice, oral administration; assay type: in vivo; details: oral therapy, 7 days
# Description: Experiments were conducted during development of embodiments of the invention in order to determine if AT1a antagonists or derivatives thereof could treat signs and symptoms of inflammatory bowel disease (e.g., inflammatory conditions of the intestine) when administered orally. Materials and methods were used as described in Example 3 with the following exceptions. AT1a antagonists or derivatives thereof were suspended in water. Each dose was given via the oral route using a blunt tipped needle by gavage directly into the stomach of each mouse. Dosing was daily in a single administration over a period of seven days. Realtime PCR was utilized to measure the abundance of mucosal RNA of several regulatory factors associated with inflammatory bowel disease. Factors studied were: TNF-α(tumor necrosis factor-alpha); interleukin-1b (IL-1b); IL-6; IL-10; transforming growth factor-beta (TGF-b) and Foxp3 (a T-cell regulatory factor). […] Realtime PCR was also utilized to measure the abundance of mucosal RNA of several additional regulatory factors associated with inflammatory bowel disease. IL-12p40, the regulatory factor for interleukin-12 (IL-12), and a key regulator for the up-regulation of interferon gamma (IFN-g); IFN-g; […]
# [4] = in vivo; cited from earlier work
# AT1a receptor [5] = details: cited from earlier work
# AT1a receptor [6] = molecular target: T1, AT1a receptor (Rattus norvegicus, UniProt P25095); assay: Ang II-dependent NF-κB-luciferase reporter assay in HepG2-AR cells; assay type: cell-based; details: Ang II 1 μM, 16 hours, Ang II alone = 100% induction, read-out: inhibition of NF-κB activation
# T1 construct: expressed in transfected cells; host or cells: HepG2 (HepG2-AR), stably transfected
# T1 sequence (P25095 1-359): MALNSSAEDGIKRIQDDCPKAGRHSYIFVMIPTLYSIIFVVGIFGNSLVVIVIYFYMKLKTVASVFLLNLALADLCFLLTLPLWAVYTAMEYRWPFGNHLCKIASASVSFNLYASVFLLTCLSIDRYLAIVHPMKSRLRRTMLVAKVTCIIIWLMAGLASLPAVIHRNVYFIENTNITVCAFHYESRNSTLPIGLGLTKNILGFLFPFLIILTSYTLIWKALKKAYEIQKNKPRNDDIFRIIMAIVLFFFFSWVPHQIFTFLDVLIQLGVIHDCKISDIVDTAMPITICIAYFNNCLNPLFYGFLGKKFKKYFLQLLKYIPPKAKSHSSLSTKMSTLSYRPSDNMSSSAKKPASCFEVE
# From the text: In vitro assessment of AT1aR antagonism. […] This model makes use of the fact that Ang II-dependent stimulation of the AT1a receptor results in rapid activation of the NF-κB transcription factor. In this model, HepG2-AR cells, which stably express the AT1a receptor, were transiently transfected with an NF-κB-luciferase reporter plasmid and a control renilla plasmid (to correct for transfection efficiency). […] Cells were harvested and the luciferase/renilla ratio determined using the Promega Dual Luciferase Assay Kit. […] Loss of Ang II-dependent luciferase induction (measured by luminometer; LMax; Molecular Devices), due to the presence of receptor blockade was then calculated and used to indicate the extent of successful blockade of the AT1a receptor signaling pathway.
# HepG2-AR cells, which stably express the AT1a receptor, were transiently transfected with an NF-κB-luciferase reporter plasmid and a control renilla plasmid (to correct for transfection efficiency). […] Cells were harvested and the luciferase/renilla ratio determined using a luciferase assay kit (e.g., Promega Dual Luciferase Assay Kit). […] The fold induction in the presence of varying doses of inhibitor was then converted to a percentage of this maximal induction.
# AT1a receptor [7] = details: read-out: IC50 against the binding of Ang II to the AT1a receptor; cited from earlier work
# Ang I-infused dogs = details: i.v., 1 mg/kg; cited from earlier work
colonic blood flow at the mucosal level [2],mesenteric blood flow [2],inhibition at 60 µM (AT1a receptor [6]) [%],Compound,"weight loss after 7 days (body weight change, FIG. 10B) (DSS colitis mice) [%]",weight loss after 1 week (percentage change from baseline body weight) (DSS colitis mice) [%],period before developing heme positive stools (DSS colitis mice) [days],"systolic blood pressure change (Delta BP, post − pre treatment) [1]","systolic blood pressure change (Delta BP, post − pre treatment) ([1]; listed as Candesartan)","systolic blood pressure change (Delta BP, post − pre treatment) ([1]; listed as candasartan)",heart rate change [1],mucosal RNA of ADAM17 [3],oral activity [4],receptor blockade function compared with losartan (AT1a receptor [5]),"systolic blood pressure change (Delta BP, post − pre treatment) ([1]; listed as Losartan)","mucosal RNA of IL-12p40, IFN-g, IL-17, AT1aR and ADAM17 [3]",IC50 (AT1a receptor [7]) [nM],time a ≧20 mmHg drop in mean arterial blood pressure (MABP) was maintained (Ang I-infused dogs) [min]
0.92±0.20,1.56±0.33,,CCOc1nc2cccc(C(=O)O)c2n1Cc1ccc(-c2ccccc2-c2nnn[nH]2)cc1 [candesartan],−0.63±1.63,0.63±1.63,8.0 ± 0.0,decline in systolic BP,resulted in a decline,significant decline in blood pressure,declined significantly,,,,,,,
failed to change,failed to change,,"CCCCc1ncc(CO)n1Cc1ccc(-c2ccccc2-c2nn[nH]n2)cc1 [DCL, des-chloro losartan]",−2.02±4.34,2.02±4.34,7.00 ± 1.4,did not significantly change BP; also recorded: no change in systolic blood pressure,,,not significantly different,marked decline in ADAM17,lacks oral activity,nearly the same receptor blockade function as losartan,,,,
0.88±0.32,1.97±0.58,90,CCCCc1nc(Cl)c(CO)n1Cc1ccc(-c2ccccc2-c2nn[nH]n2)cc1 [losartan],0.07±2.50,0.07±2.50,6.8 ± 2.7,significant decline in blood pressure,,,not significantly different,,,,decline in systolic BP; also recorded: resulted in a decline,marked decline in several of these factors,50,30
